From ChEMBL document CHEMBL1201862, “PubChem BioAssay data set” (2004)
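Results reflect a 48-hour exposure of cells in 96-well plates to compound at five concentrations. The concentration for 50% growth inhibition is given as GI50.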 Active and inactive are the calls of the source. No stated cut-off is given here; in the data, active = GI50 up to about 1.1 µM and inactive = higher.

Tests used:
Assay in all cases: NCI tumour cell line growth inhibition, 48 h
OVCAR-8 = tested on: OVCAR-8
HL-60 = tested on: HL-60
HCT-15 = tested on: HCT-15
OVCAR-3 = tested on: OVCAR-3
MDA-N = tested on: MDA-N
CAKI-1 = tested on: CAKI-1
RXF 393 = tested on: RXF 393
K562 = tested on: K562
Hs-578T = tested on: Hs-578T
TK-10 = tested on: TK-10
U-251 = tested on: U-251
OVCAR-4 = tested on: OVCAR-4
SK-OV-3 = tested on: SK-OV-3
BT-549 = tested on: BT-549
786-0 = tested on: 786-0
SF-539 = tested on: SF-539
Malme-3M = tested on: Malme-3M
SNB-19 = tested on: SNB-19
SK-MEL-28 = tested on: SK-MEL-28
NCI-H23 = tested on: NCI-H23

Row | SMILES | GI50 (OVCAR-8) | GI50 (HL-60) | GI50 (HCT-15) [µM] | GI50 (OVCAR-3) | GI50 (MDA-N) | GI50 (CAKI-1) | GI50 (RXF 393) | GI50 (K562) | GI50 (Hs-578T) | GI50 (TK-10) | GI50 (U-251) | GI50 (OVCAR-4) | GI50 (SK-OV-3) | GI50 (BT-549) | GI50 (786-0) | GI50 (SF-539) | GI50 (Malme-3M) | GI50 (SNB-19) | GI50 (SK-MEL-28) | GI50 (NCI-H23)
1 | Cc1c(/C=N/NC(=S)Nc2ccccc2Cl)c(=O)n(-c2ccccc2)n1C | 27.7 µM (inactive) | 22.4 µM (inactive) | 8.53 | 34.1 µM (inactive) | 87.3 µM (inactive) | 19.7 µM (inactive) | 16.1 µM (inactive) | 27.9 µM (inactive) | 24 µM (inactive) | 23.4 µM (inactive) | 30.3 µM (inactive) | 42.4 µM (inactive) | 31 µM (inactive) | 54.2 µM (inactive) | 19.9 µM (inactive) | 30.1 µM (inactive) | 32.7 µM (inactive) | 32.6 µM (inactive) | 58.6 µM (inactive) | –
2 | Cc1nc(C)c(N2CCN(C(=O)O)CC2)c(O)n1 | > 100 µM (inactive) | > 100 µM (inactive) | > 100 | > 100 µM (inactive) | > 100 µM (inactive) | 1.39 µM (inactive) | > 100 µM (inactive) | > 100 µM (inactive) | > 100 µM (inactive) | > 100 µM (inactive) | > 100 µM (inactive) | > 100 µM (inactive) | > 100 µM (inactive) | > 100 µM (inactive) | > 100 µM (inactive) | > 100 µM (inactive) | > 100 µM (inactive) | > 100 µM (inactive) | > 100 µM (inactive) | > 100 µM (inactive)
3 | OCC(O)C(O)C(O)C1SC(c2ccccc2)=NN1c1ccccc1 (centres undefined) | 54 µM (inactive) | > 88.7 µM (inactive) | > 100 | > 68.9 µM (inactive) | > 82.4 µM (inactive) | > 100 µM (inactive) | 20.4 µM (inactive) | > 70.1 µM (inactive) | 35.1 µM (inactive) | 61.9 µM (inactive) | 51.4 µM (inactive) | > 88.3 µM (inactive) | 36.9 µM (inactive) | > 100 µM (inactive) | 37 µM (inactive) | 41.2 µM (inactive) | > 82 µM (inactive) | 49.8 µM (inactive) | > 81.5 µM (inactive) | 45.7 µM (inactive)
4 | CO/N=C(\C(=O)Nc1cncs1)c1csc(NC(c2ccccc2)(c2ccccc2)c2ccccc2)n1 | > 10 µM (inactive) | 6.85 µM (inactive) | > 10 | > 10 µM (inactive) | > 10 µM (inactive) | > 10 µM (inactive) | 9.55 µM (inactive) | > 10 µM (inactive) | > 10 µM (inactive) | > 10 µM (inactive) | > 10 µM (inactive) | > 10 µM (inactive) | > 10 µM (inactive) | > 10 µM (inactive) | > 10 µM (inactive) | 0.628 µM (active) | > 10 µM (inactive) | > 10 µM (inactive) | > 10 µM (inactive) | > 10 µM (inactive)
5 | CC1CC[C@@]2(OC1)OC1CC3C4CCC5C[C@@H](OC6OC(CO)C(OC7OC(CO)C(O)C(OC8OC(CO)C(O)C(OC9OC(CO)C(O)C(O)C9O)C8O)C7OC7OC(CO)C(O)C(O)C7O)C(O)C6O)[C@H](O)C[C@]5(C)C4CC[C@]3(C)C1[C@@H]2C (some centres undefined) | > 80.5 µM (inactive) | > 80.5 µM (inactive) | > 80.5 | > 80.5 µM (inactive) | > 80.5 µM (inactive) | > 80.5 µM (inactive) | > 80.5 µM (inactive) | > 80.5 µM (inactive) | > 80.5 µM (inactive) | > 80.5 µM (inactive) | > 80.5 µM (inactive) | > 80.5 µM (inactive) | > 80.5 µM (inactive) | > 80.5 µM (inactive) | > 80.5 µM (inactive) | > 80.5 µM (inactive) | > 80.5 µM (inactive) | > 80.5 µM (inactive) | > 80.5 µM (inactive) | > 80.5 µM (inactive)
